In patent US8716475B2, “2-aminopyrimidine modulators of the histamine H4 receptor” (Janssen Pharmaceutica NV, priority 2007, dated 2014):
pKi: −log10 of the molar value. Where a name gives a salt, the structure may show the parent alone.

target: T1, human H4 receptor (Homo sapiens, UniProt Q9H3N8); assay: Binding Assay on Recombinant Human Histamine H4 Receptor; details: Table 2, data marked with an asterisk (*): obtained by the cell harvester method; [3H] histamine competition binding, SK-N-MC membranes
T1 construct: expressed in transfected cells
T1 sequence (Q9H3N8 whole entry): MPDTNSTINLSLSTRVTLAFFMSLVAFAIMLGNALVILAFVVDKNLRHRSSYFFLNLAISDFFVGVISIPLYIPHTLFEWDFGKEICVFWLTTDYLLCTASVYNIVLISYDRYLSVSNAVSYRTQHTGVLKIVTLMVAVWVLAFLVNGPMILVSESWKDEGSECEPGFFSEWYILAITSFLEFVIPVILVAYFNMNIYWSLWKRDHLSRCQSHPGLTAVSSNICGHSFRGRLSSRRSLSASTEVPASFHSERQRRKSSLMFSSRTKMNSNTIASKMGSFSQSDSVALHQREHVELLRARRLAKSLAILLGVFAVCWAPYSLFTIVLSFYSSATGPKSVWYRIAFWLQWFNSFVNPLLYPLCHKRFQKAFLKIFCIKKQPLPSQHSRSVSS
Procedure, shortened: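 Radioligand binding used membranes from SK-N-MC cells stably or transiently expressing human H4, prepared in 50 mM Tris/5 mM EDTA. Nonspecific binding was defined with 100 μM histamine. Bound radioactivity was counted after filtration on PEI-treated GF/C filters, and ">" values are the highest concentration tested.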

In order of rising pKi:
1. COc1c(C2CCCC2)nc(N)nc1N(C)CCN [Example 115, N^4-(2-Amino-ethyl)-6-cyclopentyl-5-methoxy-N^4-methyl-pyrimidine-2,4-diamine]  5.84
2. CN(CCN)c1cc(C(C)(C)C)nc(N)n1 [Example 131, N^4-(2-Amino-ethyl)-6-tert-butyl-N^4-methyl-pyrimidine-2,4-diamine]  6.39
3. CC(C)(C)c1cc(N2C[C@H]3CNC[C@H]3C2)nc(N)n1 [Example 132, 4-tert-Butyl-6-(cis-hexahydro-pyrrolo[3,4-c]pyrrol-2-yl)-pyrimidin-2-ylamine]  6.45
4. CC(C)(C)c1cc(N2CC(N)C2)nc(N)n1 [Example 133, 4-(3-Amino-azetidin-1-yl)-6-tert-butyl-pyrimidin-2-ylamine]  6.62

same assay, conditions: Table 2; [3H] histamine competition binding, membranes of SK-N-MC cells transfected with human H4 receptor; average of results

CCCCc1nc(N)nc(NCCN)c1OC [Example 110, N^4-(2-Amino-ethyl)-6-butyl-5-methoxy-pyrimidine-2,4-diamine] and COc1c(NCCN)nc(N)nc1C1CCCC1 [Example 116, N^4-(2-Amino-ethyl)-6-cyclopentyl-5-methoxy-pyrimidine-2,4-diamine] are within 0.2 log units of each other in pKi: 7.10 for the first, 7.19 for the second.

Compared with COc1c(C2CCCC2)nc(N)nc1N1CC(N)C1 [Example 111, 4-(3-Amino-azetidin-1-yl)-6-cyclopentyl-5-methoxy-pyrimidin-2-ylamine], COc1c(C2CCCC2)nc(N)nc1N1CC[C@@H](N)C1 [Example 113, (R)-4-(3-Amino-pyrrolidin-1-yl)-6-cyclopentyl-5-methoxy-pyrimidin-2-ylamine] is 0.61 log units lower in pKi: 7.48 for the first, 6.87 for the second.

COc1c(C2CCCC2)nc(N)nc1N1CCCNCC1 [Example 112, 4-Cyclopentyl-6-[1,4]diazepan-1-yl-5-methoxy-pyrimidin-2-ylamine] and CN[C@H]1CCN(c2nc(N)nc(C3CCCC3)c2OC)C1 [Example 114, (S)-4-Cyclopentyl-5-methoxy-6-(3-methylamino-pyrrolidin-1-yl)-pyrimidin-2-ylamine] are within 0.2 log units of each other in pKi: 7.34 for the first, 7.15 for the second.

First: COCc1cc(N2CCCNCC2)nc(N)n1 [Example 117, 4-[1,4]-Diazepan-1-yl-6-methoxymethyl-pyrimidin-2-ylamine]
Second: CC(C)Cc1cc(N2CCNCC2)nc(N)n1 [Example 147, 4-Isobutyl-6-piperazin-1-yl-pyrimidin-2-ylamine]
The pKi of the first is 1.02 log units lower: 7.38 for the first, 8.40 for the second. The second binds more tightly here.

Compared with COCc1cc(N2CC[C@H](N)C2)nc(N)n1 [Example 118, (S)-4-(3-Amino-pyrrolidin-1-yl)-6-methoxymethyl-pyrimidin-2-ylamine], CN[C@H]1CCN(c2cc(COC)nc(N)n2)C1 [Example 119, (S)-4-Methoxymethyl-6-(3-methylamino-pyrrolidin-1-yl)-pyrimidin-2-ylamine] is 0.20 log units higher in pKi: 6.62 for the first, 6.82 for the second. The second binds more tightly here.

Compared with CN1C[C@@H]2CN(c3cc(C4CC4)nc(N)n3)C[C@@H]2C1 [Example 120, 4-Cyclopropyl-6-(cis-5-methyl-hexahydro-pyrrolo[3,4-c]pyrrol-2-yl)-pyrimidin-2-ylamine], Nc1nc(C2CC2)cc(N2C[C@H]3CNC[C@H]3C2)n1 [Example 124, 4-Cyclopropyl-6-(cis-hexahydro-pyrrolo[3,4-c]pyrrol-2-yl)-pyrimidin-2-ylamine] is lower in pKi: 6.95 for the first, < 5.00 for the second.

Nc1nc(C2CC2)cc(N2CCNCC2)n1 [Example 121, 4-Cyclopropyl-6-piperazin-1-yl-pyrimidin-2-ylamine] and Nc1nc(C2CC2)cc(N2CC[C@@H](N)C2)n1 [Example 123, (R)-4-(3-Amino-pyrrolidin-1-yl)-6-cyclopropyl-pyrimidin-2-ylamine] are within 0.2 log units of each other in pKi: 8.52 for the first, 8.40 for the second.

Nc1nc(C2CC2)cc(N2CC(N)C2)n1 [Example 122, 4-(3-Amino-azetidin-1-yl)-6-cyclopropyl-pyrimidin-2-ylamine] and Nc1nc(C2Cc3ccccc3C2)cc(N2CC(N)C2)n1 [Example 161, 4-(3-Amino-azetidin-1-yl)-6-indan-2-yl-pyrimidin-2-ylamine salt] are within 0.2 log units of each other in pKi: 7.66 for the first, 7.62 for the second.

Compared with CN[C@H]1CCN(c2cc(C(C)C)nc(N)n2)C1 [Example 125, (S)-4-Isopropyl-6-(3-methylamino-pyrrolidin-1-yl)-pyrimidin-2-ylamine], CN[C@@H]1CCN(c2cc(CC(C)C)nc(N)n2)C1 [Example 148, (R)-4-Isobutyl-6-(3-methylamino-pyrrolidin-1-yl)-pyrimidin-2-ylamine] is 0.85 log units higher in pKi: 8.15 for the first, 9.00 for the second. The second binds more tightly here.

Compared with CC(C)c1cc(N2CC[C@H](N)C2)nc(N)n1 [Example 126, (S)-4-(3-Amino-pyrrolidin-1-yl)-6-isopropyl-pyrimidin-2-ylamine], CC(C)Cc1cc(N2CC[C@@H](N)C2)nc(N)n1 [Example 149, (R)-4-(3-Amino-pyrrolidin-1-yl)-6-isobutyl-pyrimidin-2-ylamine] is 0.88 log units higher in pKi: 7.64 for the first, 8.52 for the second. The second binds more tightly here.

First: CC(C)(C)c1cc(N2CC[C@@H](N)C2)nc(N)n1 [Example 127, (R)-4-(3-Amino-pyrrolidin-1-yl)-6-tert-butyl-pyrimidin-2-ylamine]
Second: CC(C)(C)c1cc(N2CC[C@H](N)C2)nc(N)n1 [Example 129, (S)-4-(3-Amino-pyrrolidin-1-yl)-6-tert-butyl-pyrimidin-2-ylamine]
The pKi of the first is 0.71 log units higher: 8.05 for the first, 7.34 for the second.

Compared with CN1C[C@@H]2CN(c3cc(C(C)(C)C)nc(N)n3)C[C@@H]2C1 [Example 128, 4-tert-Butyl-6-(cis-5-methyl-hexahydro-pyrrolo[3,4-c]pyrrol-2-yl)-pyrimidin-2-ylamine], CCCc1cc(N2C[C@H]3CN(C)C[C@H]3C2)nc(N)n1 [Example 145, 4-(cis-5-Methyl-hexahydro-pyrrolo[3,4-c]pyrrol-2-yl)-6-propyl-pyrimidin-2-ylamine] is 0.79 log units lower in pKi: 7.72 for the first, 6.93 for the second.

First: CC(C)(C)c1cc(N2CC3CCC(C2)N3)nc(N)n1 [Example 134, 4-tert-Butyl-6-(3,8-diaza-bicyclo[3.2.1]oct-3-yl)-pyrimidin-2-ylamine]
Second: CCCCc1cc(N2CC3CCC(C2)N3)nc(N)n1 [Example 143, 4-Butyl-6-(3,8-diaza-bicyclo[3.2.1]oct-3-yl)-pyrimidin-2-ylamine]
The pKi of the first is 1.00 log units lower: 6.89 for the first, 7.89 for the second. The second binds more tightly here.

First: CCCCc1cc(N2CC[C@@H](N)C2)nc(N)n1 [Example 135, (R)-4-(3-Amino-pyrrolidin-1-yl)-6-butyl-pyrimidin-2-ylamine]
Second: CCCCc1cc(N2CC[C@@H](NC)C2)nc(N)n1 [Example 137, (R)-4-Butyl-6-(3-methylamino-pyrrolidin-1-yl)-pyrimidin-2-ylamine]
The pKi of the first is 0.30 log units lower: 8.40 for the first, 8.70 for the second. The second binds more tightly here.

First: CCCCc1cc(N2CCN(C)CC2)nc(N)n1 [Example 136, 4-Butyl-6-(4-methyl-piperazin-1-yl)-pyrimidin-2-ylamine]
Second: CCCc1cc(N2CCN(C)CC2)nc(N)n1 [Example 144, 4-(4-Methyl-piperazin-1-yl)-6-propyl-pyrimidin-2-ylamine]
The pKi of the first is 0.78 log units higher: 9.00 for the first, 8.22 for the second. The first binds more tightly here.

Compared with CCCCc1cc(N(C)CCN)nc(N)n1 [Example 138, N^4-(2-Amino-ethyl)-6-butyl-N^4-methyl-pyrimidine-2,4-diamine], CCCCc1cc(N2CCNCC2)nc(N)n1 [Example 142, 4-Butyl-6-piperazin-1-yl-pyrimidin-2-ylamine] is 1.16 log units higher in pKi: 7.36 for the first, 8.52 for the second. The second binds more tightly here.

Compared with CCCCc1cc(N2C[C@H]3CN(C)C[C@H]3C2)nc(N)n1 [Example 139, 4-Butyl-6-(cis-5-methyl-hexahydro-pyrrolo[3,4-c]pyrrol-2-yl)-pyrimidin-2-ylamine], CCCCc1cc(N2C[C@H]3CNC[C@H]3C2)nc(N)n1 [Example 140, Butyl-6-(cis-hexahydro-pyrrolo[3,4-c]pyrrol-2-yl)-pyrimidin-2-ylamine] is 0.46 log units lower in pKi: 6.86 for the first, 6.40 for the second.

CCCCc1cc(N2CC3CCCNC3C2)nc(N)n1 (stereo not drawn) [Example 141, 4-Butyl-6-(cis-octahydro-pyrrolo[3,4-b]pyridin-6-yl)-pyrimidin-2-ylamine] and CCc1cc(N2CC[C@H](NC)C2)nc(N)n1 [Example 150, (S)-4-Ethyl-6-(3-methylamino-pyrrolidin-1-yl)-pyrimidin-2-ylamine] are within 0.2 log units of each other in pKi: 7.08 for the first, 7.07 for the second.

Compared with CC(C)Cc1cc(N2CCN(C)CC2)nc(N)n1 [Example 146, 4-Isobutyl-6-(4-methyl-piperazin-1-yl)-pyrimidin-2-ylamine], CN1CCN(c2cc(C3(C)CCOCC3)nc(N)n2)CC1 [Example 154, 4-(4-Methyl-piperazin-1-yl)-6-(4-methyl-tetrahydro-pyran-4-yl)-pyrimidin-2-ylamine] is 1.21 log units lower in pKi: 8.52 for the first, 7.31 for the second.

CC1(c2cc(N3CCNCC3)nc(N)n2)CCOCC1 [Example 153, 4-(4-Methyl-tetrahydro-pyran-4-yl)-6-piperazin-1-yl-pyrimidin-2-ylamine] and CN[C@@H]1CCN(c2cc(C3(C)CCOCC3)nc(N)n2)C1 [Example 155, (R)-4-(3-Methylamino-pyrrolidin-1-yl)-6-(4-methyl-tetrahydro-pyran-4-yl)-pyrimidin-2-ylamine] are within 0.2 log units of each other in pKi: 7.01 for the first, 7.09 for the second.

Nc1nc(C2CC2c2ccccc2)cc(N2CCNCC2)n1 (stereo not drawn) [Example 156, 4-(trans-2-Phenyl-cyclopropyl)-6-piperazin-1-yl-pyrimidin-2-ylamine] and CN1CCN(c2cc(C3CC3c3ccccc3)nc(N)n2)CC1 (stereo not drawn) [Example 158, 4-(4-Methyl-piperazin-1-yl)-6-(trans-2-phenyl-cyclopropyl)-pyrimidin-2-ylamine] are within 0.2 log units of each other in pKi: 7.92 for the first, 8.10 for the second.

Going from NCCNc1cc(C2CC2c2ccccc2)nc(N)n1 (stereo not drawn) [Example 159, N^4-(2-Amino-ethyl)-6-(trans-2-phenyl-cyclopropyl)-pyrimidine-2,4-diamine] to Nc1nc(C2Cc3ccccc3C2)cc(N2CC[C@@H](N)C2)n1 [Example 162, (R)-4-(3-Amino-pyrrolidin-1-yl)-6-indan-2-yl-pyrimidin-2-ylamine], the pKi rises from 7.38 to 8.30 (0.92 log units). The second binds more tightly here.

Compared with CN1CCN(c2cc(C3Cc4ccccc4C3)nc(N)n2)CC1 [Example 163, 4-Indan-2-yl-6-(4-methyl-piperazin-1-yl)-pyrimidin-2-ylamine], CN[C@@H]1CCN(c2cc(C3Cc4ccccc4C3)nc(N)n2)C1 [Example 164, (R)-4-Indan-2-yl-6-(3-methylamino-pyrrolidin-1-yl)-pyrimidin-2-ylamine] is 0.30 log units lower in pKi: 8.70 for the first, 8.40 for the second. The first binds more tightly here.
